Test results taken from patent US20220409526A1 (Retina Foundation Of The Southwest, priority 2019, published 2022).
“Also recorded” adds a separate entry of the source.

Experiments:
ARPE-19 cells [1] = assay: HPLC analysis of cellular uptake and conversion to NAC; format: in vitro ADME, human; settings: 1 mM for 1 hour in HBSS
Protocol: ARPE-19 cells were seeded onto a 60 cm^2 dish and was allowed to grow to confluency. The cells were treated with 1 mM NAC and NACBE for 1 hour in HBSS. The drug solution was aspirated and washed twice with HBSS. The cells were scraped with the aid of methanol (˜1 mL) and collected into 2 mL centrifuge tubes. The cell suspension in methanol was sonicated (for cell lysis) in a water bath for 30 minutes and was centrifuged at 14,000 RPM for 15 minutes. The supernatant was transferred to a HPLC vial and methanol was evaporated under a stream of nitrogen.
The sample was resuspended in 50 μL of methanol before injecting into the HPLC system. Samples and standard (20 μL) were injected with an autosampler. Separation was conducted by 0.8 mL/min gradient elution with a water/0.10% formic acid and acetonitrile mobile phase on a 250×4.6-mm ([…]) C18 column (Restek, Pinnacle II) maintained at 25° C. The samples were monitored at 205 nm with a UV detector and analyzed with Agilent Chemstation software.

ARPE-19 cells [2] = assay: JC-1 assay (mitochondrial membrane potential); format: cell-based, human; settings: 1 mM pretreatment for 1 hour, then 50 μM HQ for 4 hours
Protocol: JC-1 assays measuring the change in mitochondrial membrane potential were carried out to evaluate the protection of the NAC alkyl-ester analogues towards mitochondrial damage.
Typically, JC-1 dye has an inherent green fluorescence at 530 nm. Upon reaching the cell, due to the structural properties of the dye, it will accumulate in the mitochondria making aggregates known as J-aggregates. These J-aggregates consists of a red shifted fluorescence (590 nm). Damaged or unhealthy mitochondria, due to their depolarized membrane potential (compared to healthy ones), will have lesser amounts of aggregates and thus will have low intensity of red emission. Cells with healthy mitochondria will have a more prominent red fluorescence than that in cells with damaged/unhealthy mitochondria due to the ability in forming J-aggregates.
ARPE-19 cells were grown in black, clear bottom 96 well plates. […] With increasing time and dose of HQ, a drop in 590 nm/530 nm fluorescence is seen due to the depolarization of the mitochondria.
Next, to assess the effect of NAC alkyl-ester analogues on oxidative damage in mitochondria (FIG. 12B), ARPE-19 cells were pretreated with 1 mM NAC, NAC alkyl-ester analogues, NACA, GSH-EE and 1 μM MitoQ for 1 and 24 hours. […] The JC-1 solution was removed and washed once with PBS and fluorescence measurements were obtained in PBS at 485 nm excitation and emission at 535 nm and 590 nm. […]

[3] = test system: mitochondria isolated from ARPE-19 cells; assay: Mitochondrial GSH assay; format: cell-based, human; settings: 1 mM for 24 hours; compared to NAC and ARPE-19 cells
Protocol: A GSH assay was carried out for isolated mitochondria to study the mechanism of action of the NAC alkyl-ester analogues in protecting mitochondria. ARPE-19 cells were grown in 6 well plates until 100% confluent in MEM-NIC media. The cells were exposed to 3 mL of 1 mM solutions of NAC and NACBE for 24 hours. The solutions were removed and washed with 3 mL of HBSS before adding 1 mL of 0.25% Trypsin-EDTA and incubating for 10 minutes. 2 mL of DMEM:F-12 supplemented with 10% FBS was added to each well, harvested and centrifuged at 300 rcf for 5 minutes. The supernatant was removed and cell pellet was resuspended in 2 mL of isolation buffer (0.25 M sucrose and 10 mM HEPES).
Cells were disrupted using a probe sonicator (Misonix 5-3000) for 10 seconds in ice. Subsequently, intact cells and debris were removed by centrifuging at 1000 g for 10 mins. Supernatant was collected, and centrifuged at 20,000 g for 25 minutes. Pellet containing mitochondria were saved and washed using 0.5 mL of isolation buffer. After centrifuging at 20,000 g for 25 minutes the mitochondrial pellet was resuspended in 50 μL of HBSS. 25 μL was used to determine total GSH and GSSG and 25 μL was used to determine GSSG levels. GSH assay was then carried out according to manufacturer recommended protocol (Promega GSH/GSSG-Glo™) and luminescence readings were obtained.

ARPE-19 cells [4] = assay: JC-1 staining (confocal); settings: 1 mM pretreatment for 24 hours, then 50 μM HQ for 4 hours
Source text: The cells were imaged on the confocal (Zeiss LSM 800) by excitation with the 488 nm laser and emission imaged at 530 nm (green channel) and 590 nm (red channel).

SMILES: CCCCOC(=O)[C@H](CS)NC(C)=O [NACBE, N-acetylcysteine butyl ester]
- compound and metabolite detected within the cells by HPLC (ARPE-19 cells [1]): both NACBE (prodrug) and NAC (metabolite) within the cells; also recorded: taken up by the cells more effectively than NAC
- protection towards mitochondrial damage (JC-1) (ARPE-19 cells [2]): improved protection towards mitochondrial damage
- mitochondrial GSH level (luminescence intensity) [3]: increase in the luminescence intensity
- mitochondrial membrane potential after HQ (JC-1 staining) (ARPE-19 cells [4]): preserved the mitochondrial membrane potential
